[7dzG] = 7-deaza-2'-deoxyguanosine (G*)

Data on 6 compounds can be found in US6593306B1, “Methods for modulation and inhibition of telomerase” (Board of Regents, The University of Texas Systems, priority 1995, dated 2003).

For data set [1], the system named is MCF-7. Briefly: Growth inhibition (MTT), MCF-7. To be noted: Homo sapiens, MCF7, 144 h, 6 days. The data set is classed as cell-based. The protocol:
(§1) Exponentially growing cells (1-2×10^3 cells, unless specified otherwise) in 0.1 ml medium were seeded on day 0 in a 96-well microtiter plate. On day 1, 0.1 ml aliquots of medium containing graded concentrations of test analogs were added in duplicate to the cell plates. After incubation at 37° C. in a humidified incubator for 6 days, the plates were centrifuged briefly and 100 μl of the growth medium was removed. Cell cultures were incubated with 50 μl of 3-(4,5-dimethylthiazol-2-yl)-2,5-diphenyl-tetrazolium bromide, (MTT) at a concentration of 1 mg/ml in Dulbecco's phosphate buffered saline (PBS)) for 4 hr at 37° C. The resulting purple formazan precipitate was solubilized with 200 μl of 0.04 N HCl in isopropyl alcohol. Absorbance was monitored in a BioRad Model 3550 Microplate Reader at a test wavelength of 570 nm and a reference wavelength of 630 nm. The absorbance was transferred to a PC 486 computer. The IC50 values were determined by a computer program (EZ-ED50) that fits all the data to the following four-parameter logistic equation: [formula]
(§2) where Amax is the absorbance of control cells, Amin is the absorbance of cells in the presence of highest agent concentration, Y is the observed absorbance, X is the agent concentration, IC50 is the concentration of agent that inhibits the cell growth by 50% of control cells (based on the absorbance) and n is the slope of the curve.
(§3) This is due to the extracellular dephosphorylation of the mono-, di-, or triphosphates by […] or 5′-nucleotidase back to the nucleoside. With this in mind, the inventors used only nucleosides rather than nucleoside triphosphates in these studies. Cultured tumor cells were incubated with selected nucleosides at graded concentrations for 6 days and the growth inhibition was determined by the standard MTT assay.

In data set [2] the test system is MDA-231. Briefly: Growth inhibition (MTT), MDA-231. In kind it is cell-based. To be noted: Homo sapiens, MDA-MB-231, 144 h, 6 days. As for the experimental part: as §1, §2, §3
The subject of data set [3] is BT-20. Briefly: Growth inhibition (MTT), BT-20. As to conditions: Homo sapiens, BT-20, 144 h, 6 days. In kind it is cell-based. The protocol: as §1, §2, §3
Data set [4] concerns DU145. Briefly: Growth inhibition (MTT), DU145. To be noted: Homo sapiens, DU-145, 144 h, 6 days. In kind it is cell-based. The protocol: as §1, §2, §3
For data set [5], the system named is PC3. Briefly: Growth inhibition (MTT), PC3. The data set is classed as cell-based. As to conditions: Homo sapiens, PC-3, 144 h, 6 days. The protocol:
as §1, §2, §3

Data set [6] deals with SKBR3. Briefly: Growth inhibition (MTT), SKBR3. The data set is classed as cell-based. As to conditions: Homo sapiens, SK-BR-3, 144 h, 6 days. As for the experimental part: as §1, §2, §3
Data set [7] deals with Raji. Briefly: Growth inhibition (MTT), Raji. The data set is classed as cell-based. As to conditions: Homo sapiens, 144 h, 6 days. The protocol: as §1, §2, §3
The target in data set [8] is T1, UA-21 telomerase (Cricetulus griseus, UniProt A0A9J7FFE8).
T1 construct: non-processive telomerase activity in the S100 extracts of HeLa-S3, UA-21 and WI38 cell lines; endogenous in cells; host or cells: UA-21 cells (CHO subline), S100 extract
T1 sequence (A0A9J7FFE8 1-1129): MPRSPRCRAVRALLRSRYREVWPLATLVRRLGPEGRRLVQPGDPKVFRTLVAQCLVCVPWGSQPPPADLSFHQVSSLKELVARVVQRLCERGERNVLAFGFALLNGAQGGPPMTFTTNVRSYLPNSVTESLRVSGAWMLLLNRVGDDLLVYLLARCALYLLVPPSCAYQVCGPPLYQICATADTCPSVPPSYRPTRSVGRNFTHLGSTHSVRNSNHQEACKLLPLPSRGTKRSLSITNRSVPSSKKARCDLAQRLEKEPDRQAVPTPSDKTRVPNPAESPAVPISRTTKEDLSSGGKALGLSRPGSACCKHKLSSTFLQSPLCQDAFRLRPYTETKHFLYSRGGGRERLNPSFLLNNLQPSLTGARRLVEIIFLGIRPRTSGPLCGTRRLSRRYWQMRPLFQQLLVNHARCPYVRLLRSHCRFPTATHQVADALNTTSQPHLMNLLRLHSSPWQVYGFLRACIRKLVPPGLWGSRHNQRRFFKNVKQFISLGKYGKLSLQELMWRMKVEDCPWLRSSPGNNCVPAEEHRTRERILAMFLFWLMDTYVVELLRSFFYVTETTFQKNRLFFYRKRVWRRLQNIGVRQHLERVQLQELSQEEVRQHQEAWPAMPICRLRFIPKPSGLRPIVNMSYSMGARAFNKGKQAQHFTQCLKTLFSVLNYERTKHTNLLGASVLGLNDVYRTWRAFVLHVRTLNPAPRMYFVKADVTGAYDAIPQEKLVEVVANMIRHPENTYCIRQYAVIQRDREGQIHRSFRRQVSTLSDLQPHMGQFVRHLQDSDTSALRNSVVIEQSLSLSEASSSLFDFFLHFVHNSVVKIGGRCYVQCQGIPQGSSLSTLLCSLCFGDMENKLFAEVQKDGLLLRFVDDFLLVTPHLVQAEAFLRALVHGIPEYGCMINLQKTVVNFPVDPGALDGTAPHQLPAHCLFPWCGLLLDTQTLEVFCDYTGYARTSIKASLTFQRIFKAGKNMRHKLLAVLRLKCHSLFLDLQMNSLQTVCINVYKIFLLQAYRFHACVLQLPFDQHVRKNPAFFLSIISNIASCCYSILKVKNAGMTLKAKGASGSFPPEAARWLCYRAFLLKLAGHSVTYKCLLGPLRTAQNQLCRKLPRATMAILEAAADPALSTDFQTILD
Briefly: Telomerase assay with CHO non-processive telomerase. The data set is classed as biochemical, Chinese hamster. The protocol:
Selected nucleoside triphosphates were tested in one or both of the “conventional” or “modified” telomerase assays described in Methods using the human processive and the CHO non-processive telomerases. Initially, three chain-terminators were selected: 2′,3′-dideoxythymidine triphosphate (ddTTP), 3′-fluoro-2′,3′-dideoxythymidine triphosphate (F-ddTTP), and 3′-azido-2′-, 3′-dideoxythymidine triphosphate (AZ-ddTTP) as prototype agents to investigate whether they could inhibit telomerase activity. The three compounds are dTTP analogs without a 3′-OH group for subsequent chain elongation. They may either incorporate into the telomere sequence and terminate further chain elongation or compete directly with dTTP for the substrate binding site in the telomerase reaction. In either case, telomerase activity is inhibited.
The DNA ladder bands were quantitated using a Molecular Dynamic Personal Densitometer. The concentration of AZ-ddTTP required to inhibit the telomerase activity by 50% of the control is estimated to be 500 and 750 μM against the 293 and UA-21 telomerase, respectively. In contrast, the nucleoside AZT (3′-azidothymidine), at 2 mM, has a small effect on the telomerase activity.

For data set [9], the target named is T2, human telomerase (Homo sapiens, UniProt O14746).
T2 construct: telomerase in S100 extracts of transformed human fetal kidney tumor 293 cells (a processive telomerase); endogenous in cells; host or cells: human cells, (S100 extract)
T2 sequence (O14746 whole entry): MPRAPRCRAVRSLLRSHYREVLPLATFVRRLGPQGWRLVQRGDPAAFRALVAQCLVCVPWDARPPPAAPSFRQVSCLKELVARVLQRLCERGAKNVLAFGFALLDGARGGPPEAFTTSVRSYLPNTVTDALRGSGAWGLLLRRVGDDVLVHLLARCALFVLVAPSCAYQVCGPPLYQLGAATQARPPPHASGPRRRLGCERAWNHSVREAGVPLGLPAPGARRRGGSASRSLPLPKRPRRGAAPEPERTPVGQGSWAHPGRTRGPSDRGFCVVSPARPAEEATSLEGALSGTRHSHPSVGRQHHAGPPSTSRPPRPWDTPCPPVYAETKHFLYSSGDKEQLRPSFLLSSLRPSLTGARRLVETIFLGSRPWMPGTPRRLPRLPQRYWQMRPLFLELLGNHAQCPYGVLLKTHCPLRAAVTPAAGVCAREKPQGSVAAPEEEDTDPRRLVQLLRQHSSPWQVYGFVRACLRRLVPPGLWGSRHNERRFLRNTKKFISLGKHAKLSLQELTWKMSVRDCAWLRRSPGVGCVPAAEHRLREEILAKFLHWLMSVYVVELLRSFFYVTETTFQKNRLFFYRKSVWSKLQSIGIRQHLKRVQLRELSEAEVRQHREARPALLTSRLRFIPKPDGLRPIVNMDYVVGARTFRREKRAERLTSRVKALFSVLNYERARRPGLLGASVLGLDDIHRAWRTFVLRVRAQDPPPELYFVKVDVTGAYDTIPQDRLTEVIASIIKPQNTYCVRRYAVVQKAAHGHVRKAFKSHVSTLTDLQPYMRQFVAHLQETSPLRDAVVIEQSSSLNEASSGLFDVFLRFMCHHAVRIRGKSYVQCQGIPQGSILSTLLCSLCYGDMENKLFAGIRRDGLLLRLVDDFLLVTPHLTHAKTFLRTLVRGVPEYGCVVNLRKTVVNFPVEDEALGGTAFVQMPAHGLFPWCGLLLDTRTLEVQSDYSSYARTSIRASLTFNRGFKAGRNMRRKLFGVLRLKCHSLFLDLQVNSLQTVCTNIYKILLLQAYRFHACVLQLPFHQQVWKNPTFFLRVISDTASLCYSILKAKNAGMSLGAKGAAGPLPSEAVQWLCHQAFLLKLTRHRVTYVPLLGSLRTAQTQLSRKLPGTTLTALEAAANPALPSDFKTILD
T2 sequence (O60832 whole entry partner): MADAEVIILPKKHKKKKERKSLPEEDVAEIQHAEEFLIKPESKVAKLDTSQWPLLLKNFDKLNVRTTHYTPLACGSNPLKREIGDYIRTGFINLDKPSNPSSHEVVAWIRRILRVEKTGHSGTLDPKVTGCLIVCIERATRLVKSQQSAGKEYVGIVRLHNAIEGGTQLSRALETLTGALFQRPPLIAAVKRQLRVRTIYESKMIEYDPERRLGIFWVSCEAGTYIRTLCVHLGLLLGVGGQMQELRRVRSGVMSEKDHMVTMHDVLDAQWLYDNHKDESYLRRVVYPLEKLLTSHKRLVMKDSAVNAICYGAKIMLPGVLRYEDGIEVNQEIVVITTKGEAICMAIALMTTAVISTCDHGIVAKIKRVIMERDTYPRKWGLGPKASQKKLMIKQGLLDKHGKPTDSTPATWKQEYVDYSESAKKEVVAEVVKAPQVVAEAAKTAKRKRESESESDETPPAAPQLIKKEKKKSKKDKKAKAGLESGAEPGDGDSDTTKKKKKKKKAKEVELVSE
T2 sequence (Q9NPE3 whole entry partner): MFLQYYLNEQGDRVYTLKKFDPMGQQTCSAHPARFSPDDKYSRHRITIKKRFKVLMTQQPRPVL
T2 sequence (Q9NX24 whole entry partner): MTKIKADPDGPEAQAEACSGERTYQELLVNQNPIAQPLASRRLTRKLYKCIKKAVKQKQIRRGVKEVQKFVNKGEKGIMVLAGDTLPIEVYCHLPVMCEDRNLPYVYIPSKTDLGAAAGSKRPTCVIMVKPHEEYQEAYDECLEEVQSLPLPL
T2 sequence (Q9NY12 whole entry partner): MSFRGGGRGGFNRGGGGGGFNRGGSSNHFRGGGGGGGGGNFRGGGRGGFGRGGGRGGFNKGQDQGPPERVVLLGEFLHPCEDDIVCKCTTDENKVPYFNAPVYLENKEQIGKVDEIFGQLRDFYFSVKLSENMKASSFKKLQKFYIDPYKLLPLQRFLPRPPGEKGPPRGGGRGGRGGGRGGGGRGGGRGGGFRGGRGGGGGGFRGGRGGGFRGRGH
Briefly: Cell-free telomerase inhibition, conventional or modified assay not stated. The data set is classed as biochemical.

In data set [10] the target is T3, human 293 cell telomerase (Homo sapiens, UniProt O14746).
T3 construct: with 20 μl of S100 enzyme extract; endogenous in cells; host or cells: 293 cells (transformed human embryonic kidney), S100 extract
T3 sequence (O14746 whole entry): as the sequence (O14746 whole entry) above
T3 sequence (O60832 whole entry partner): as the sequence (O60832 whole entry partner) above
T3 sequence (Q9NPE3 whole entry partner): as the sequence (Q9NPE3 whole entry partner) above
T3 sequence (Q9NX24 whole entry partner): as the sequence (Q9NX24 whole entry partner) above
T3 sequence (Q9NY12 whole entry partner): as the sequence (Q9NY12 whole entry partner) above
Briefly: Conventional telomerase assay (32P-dGTP as radiolabel substrate). In kind it is biochemical. To be noted: 293 cells telomerase; competing dTTP 1-2 mM; inhibitor 0 to 2 mM.

Data set [11] has as its system transformed human embryonic kidney 293 cells. Briefly: Growth inhibition (MTT), 293 cells. The data set is classed as cell-based. To be noted: HEK293, 144 h, 6 days. As for the experimental part:
as §1, §2, §3

For data set [12], the system named is human colon carcinoma HT29 cells. Briefly: Growth inhibition (MTT), HT29 cells. As to conditions: HT-29, 144 h, 6 days. The data set is classed as cell-based. As for the experimental part: as §1, §2, §3
Data set [13] concerns G-quartet structure of human telomeric DNA sequence. Briefly: G-quartet formation by imino proton NMR. In kind it is physicochemical. To be noted: KCl-containing buffer; imino proton resonances 10-12 ppm. As for the experimental part:
The oligodeoxyribonucleotide having the sequence d(GGTTAGGGTTAG), corresponding to the human telomeric DNA sequence, was prepared using standard automated solid phase synthesis techniques employing a ten micromole synthesis on an Applied Biosystems Model 381A automated DNA synthesizer. Solid support and reagents were purchased from Biogenex, Glen Research, or Applied Biosystems, South San Francisco, Calif. The DNA sample was deprotected in concentrated NH4OH at 55° C. overnight, purified by reverse phase HPLC on a C18 column (Dynamax-300A) and then dialyzed extensively against deionized water. NMR samples were prepared by reconstituting lyophilized DNA in 90% H2O/10% D2O containing 1 mM EDTA/50 mM potassium phosphate and either 100 mM KCl or 100 mM NaCl. NMR experiments were carried out on a Bruker AMX 500 MHz spectrophotometer using a 1-1 echo pulse sequence with maximum excitation centered as 12.0 ppm.
After cleavage from the solid support, deprotection and purification, the oligodeoxyribonucleotide is dissolved in 90% H2O/10% D2O containing 100 mM KCl/1 mM EDTA/50 mM potassium phosphate. The imino NMR spectrum of this oligodeoxyribonucleotide is acquired at various temperatures from about 0° C.-80° C. and the presence of the diagnostic G-quartet imino is indicated by the presence of resonances at 10-12 ppm.

For the compound `CSc1nc(N)nc2c1ccn2C1CC(O)C(CO)O1` (centres unmarked) [Compound 3, 6-Thiomethyl-7-deaza-2′-deoxyguanosine], the IC50 in [1] was 88.6 µM; in data set [2], 281 µM; in data set [3], 94.3 µM; in data set [4], above 100 µM; in data set [5], above 100 µM; in [6] it was 74 µM. In addition, the IC50 in data set [7] was 84.1 µM.

`Cc1cn([C@H]2C[C@H](F)[C@@H](COP(=O)(O)OP(=O)(O)OP(=O)(O)O)O2)c(=O)[nH]c1=O` [NA002, 3′-Fluoro-3′-Deoxythymidine-5′-Triphosphate]: the “inhibition of the non-processive CHO telomerase” value in data set [8] (concentration not given) was “completely”. For the same compound, in [9] (concentration not given), the “effect against the processive human telomerase” value is recorded as “little effect”.

Regarding `Cc1cn([C@H]2C[C@H](N=[N+]=[N-])[C@@H](CO[P@](=O)(O)O[P@](=O)(O)OP(=O)(O)O)O2)c(=O)[nH]c1=O` [NA010, 3′-Azido-3′-Deoxythymidine-5′-Triphosphate], the IC50 in data set [10] is around 200 µM; in [8] (UA-21 telomerase, estimated from densitometry, read-out: concentration required to inhibit the telomerase activity by 50% of the control), around 750 µM; in data set [9] (293 telomerase, estimated from densitometry, read-out: concentration required to inhibit the telomerase activity by 50% of the control), around 500 µM.

`Nc1nc2c(ccn2[C@H]2C[C@H](O)[C@@H](CO)O2)c(=S)[nH]1` [NA028, 6-Thio-7-Deaza-2′-Deoxyguanosine]: the IC50 in data set [1] is 108 µM; in [2], 117 µM; in [3], 84 µM; in [4] it was above 100 µM; in data set [5] it was 209 µM; in data set [6], 108 µM. The IC50 in [7] was 103 µM; in data set [11], 461 µM; in data set [12], 461 µM.

“d(GGTTAGG*GTTAG): oligodeoxyribonucleotide where G* represents the 7-deaza-2′-deoxyguanosine residue (DNA GGTTAGGGTTAG; DNA, [7dzG] at 7, backbone not given here)”: in data set [13], the “temperature up to which G-quartet structure forms” value is at most 20 °C.

Consider “d(GGTTAGGGTTAG): oligodeoxyribonucleotide corresponding to the human telomeric DNA sequence (DNA, backbone not given here) [reference compound]”, for which, in data set [13], the “temperature up to which G-quartet structure forms” value was at least 70 °C.
